Measured values: PubChem BioAssay (NCI)
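96-well plates; 48 h exposure; 5 concentrations. Endpoints by linear interpolation between flanking doses. Not reached: highest tested concentration assigned. TGI: total growth inhibition.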

Legend:
Experiment in all cases: inhibition of tumour cell growth, NCI panel, 48 h
A549 NSCLC = test system: A549 NSCLC
ACHN renal = test system: ACHN renal
CAKI-1 renal = test system: CAKI-1 renal
HT29 colon = test system: HT29 colon
KM12 colon = test system: KM12 colon
SK-MEL-2 melanoma = test system: SK-MEL-2 melanoma
SK-MEL-28 melanoma = test system: SK-MEL-28 melanoma
SNB-75 CNS = test system: SNB-75 CNS
SR leukemia = test system: SR leukemia
TK-10 renal = test system: TK-10 renal
UACC-257 melanoma = test system: UACC-257 melanoma
UACC-62 melanoma = test system: UACC-62 melanoma
BT-549 breast = test system: BT-549 breast
EKVX NSCLC = test system: EKVX NSCLC
T-47D breast = test system: T-47D breast
PC-3 prostate = test system: PC-3 prostate

SMILES	TGI (A549 NSCLC) [µM]	TGI (ACHN renal) [µM]	TGI (CAKI-1 renal) [µM]	TGI (HT29 colon) [µM]	TGI (KM12 colon) [µM]	TGI (SK-MEL-2 melanoma) [µM]	TGI (SK-MEL-28 melanoma) [µM]	TGI (SNB-75 CNS) [µM]	TGI (SR leukemia) [µM]	TGI (TK-10 renal) [µM]	TGI (UACC-257 melanoma) [µM]	TGI (UACC-62 melanoma) [µM]	TGI (BT-549 breast) [µM]	TGI (EKVX NSCLC) [µM]	TGI (T-47D breast) [µM]	TGI (PC-3 prostate) [µM]
C=CC(Br)(CBr)CCC(Br)C(C)(C)Br (configuration not stated)	29.8	25.3	37.4	26.8	22.3	29.7	29.8	22.3	21.5	30.3	27.6	24.6	–	–	–	–
S=C1NCCN1C(=S)NC1CCCCC1	99.1	> 100	74.5	57.2	65.3	96	> 100	72.1	> 100	93.1	63.3	96.5	60.9	> 100	> 100	–
COc1ccc(N2C(=O)C(C#N)=C(SC)C(C#N)C2=O)cc1 (configuration not stated)	> 100	> 100	> 100	> 100	> 100	> 100	–	> 100	–	> 100	> 100	> 100	> 100	> 100	–	> 100
O=C(Cc1nc2ccc(C(=O)c3ccccc3)cc2[nH]c1=O)C(=O)Nc1ccc(C(F)(F)F)cc1[N+](=O)[O-]	> 100	> 100	> 100	> 100	> 100	> 100	> 100	> 100	> 100	> 100	> 100	> 100	–	> 100	–	–
CNC(=O)C1CCC(=O)N1CN(C(C)=O)c1ccccc1 (configuration not stated)	> 100	> 100	> 100	> 100	> 100	> 100	> 100	> 100	84	> 100	> 100	> 100	–	> 100	> 100	> 100
Cc1ccc(S(=O)(=O)C(C#N)c2nc3ccccc3nc2N2CCOCC2)cc1 (configuration not stated)	> 100	> 100	65	–	38.2	88.6	51.9	> 100	> 100	> 100	> 100	28.5	–	> 100	–	–
c1csc(-c2sc(-c3ccsc3)cc2Cc2ccsc2)c1	> 10	–	> 10	> 10	> 10	–	> 10	> 10	> 10	> 10	> 10	> 10	–	> 10	> 10	> 10
CC1=C(S(=O)c2ccc(C)cc2)CCC2(CCCCO2)O1 (configuration not stated)	–	> 100	> 100	> 100	> 100	> 100	> 100	> 100	–	> 100	> 100	> 100	> 100	> 100	> 100	> 100
